We go through 3 compounds from US10660878B2, “Methods of treating dementia and pharmaceutical compositions thereof” (H. Lundbeck A/S, priority 2012, dated 2020).

Data set [1] can be described thus: Plasma concentration of Compound I (PK) in PET study Part B. It is filed as in vivo, human. To be noted: P2 scans, post-dose duration 10-51 hours. As for the experimental part:
Dosing schemes include 5 mg (5Q; Part B4) once daily or QD, 30 mg QD (30Q; Part B3), 30 mg b.i.d. (30B; Part B2), and 60 mg b.i.d (60B; Part B1). […] Model 2 was supported over Model 1 in Pu, CN, and vS by Akaike information criterion (AIC; The smaller the AIC value the better the fit) (Akaike 1974) and F-test comparing residual sums of squares (RSS) of the two models (Table 1).

A short description of data set [2]: Phase I PK study in the elderly and AD study 12936A pharmacokinetics. It is filed as in vivo, human. To be noted: for half-life: human, plasma, read-out: elimination half life (converted). As for the experimental part:
In total, the dataset used in the popPK model consisted of 265 patients. The doses administered, single or multiple, were in the range of 9.0-300 mg.

The test system of data set [3] is patients with schizophrenia. The data set is described as follows: Study 12450A, adjunctive treatment to risperidone in schizophrenia. It is filed as in vivo, human. To be noted: 120 mg/day BID. The procedure: Overall improvement in schizophrenia symptoms was assessed by using the Positive and Negative Syndrome Scale (PANSS) total score.
(§1) The AD study cited in the Background section is referred to in this application as study 12936A. The schizophrenia study cited in the Background section is referred to in this application as study 12450A.

Data set [4] has as its target T1, 5-HT6 receptor (Homo sapiens, UniProt P50406). The experiment in a line: PET 5-HT6 receptor occupancy after multiple oral doses, [^11C]LuPET radioligand (Part B). Format: in vivo. Also on record: from tissue; host or cells: brain of living healthy male subjects (putamen, caudate nucleus, ventral striatum), in vivo PET. The procedure:
(§2) As the radioligand has not previously been dosed to humans it was initially evaluated in the human brain to identify an optimal method for quantification and validate the radioligand as a PET tracer (Part A).
Eight healthy male subjects (Age: 30.6±7.7 years; range: 22-44 years) participated in Part A, and sixteen healthy male subjects (Age: 32.3±7.6 years; range: 21-44 years) participated in Part B of this study.
(§3) PET studies were performed on the GE Advance Tomograph (GE Medical Systems, Waukesha, Wis., USA). Subjects had one venous catheter for the radioligand injection, and one arterial catheter to obtain arterial blood samples for the determination of radioactivity in plasma. Then, subjects were positioned in the scanner with the head restrained with a custom-made thermoplastic mask to reduce the head motion during PET data acquisition. Then, a 10 minute attenuation scan was performed using a rotating ^68Ge source for attenuation correction. Dynamic PET acquisition was then performed in a three-dimensional mode for 90 min following an intravenous bolus injection of [^11C]LuPET. A total of 30 PET frames were obtained (4×15, 4×30, 3×60, 2×120, 5×240, and 12×300 seconds). […] Selected samples taken at 0, 5, 10, 30, 45, 60, and 90 min were analyzed by HPLC for the presence of the radioligand and its radioactive metabolites as described elsewhere (Hilton et al., 2000).
Volumes of interest (VOIs): Cortical VOIs were automatically defined using Freesurfer software and combined into standard regions including: frontal (Fr), temporal (Tp), parietal (Pa), and occipital (Oc) cortices, fusiform gyms (Fs), cingulate (Cg), and insula (In). Subcortical regions were defined with FIRST software (Patenaude et al., 2011) and manually adjusted on individual MRIs. Subcortical regions included putamen (Pu), caudate nucleus (CN), ventral striatum (vS), globus pallidus (GP), thalamus (Th), hippocampus (Hp), and amygdala (Am). VOIs were transferred from MRI to PET spaces following MRI-to-PET coregistration parameters given by SPMS (Ashbumer J, Friston 2003; Macs et al., 1997) to obtain time-activity curves (TACs) of regions. A total of 25 regions per scan were employed for methodological evaluations (Part A) while occupancy calculation was limited to Pu, CN, and vS (Part B).
Derivation of PET outcome variables: Primary PET outcome variables are total distribution volume, VT and binding potential, BPND (=fND·Bavail/KD, where fND refers to the fraction of non-displaceable compartment, Bavail stands for the density of available (unoccupied) 5-HT6 receptors, and KD stands for the dissociation constant; Innis et al., 2007).
A set of standard plasma input methods were employed to identify the optimal method for derivation of regional distribution volume (VT) for [^11C]LuPET including, a one tissue compartmental model (OTCM) with three parameters (K1, and k2′; See Koeppe et al., 1991 for the definitions, and v0, tissue vascular volume), two tissue compartmental models with five parameters (K1, k2, k3, k4, and v0; See Innis et al., 2007 for the definitions), without and with constraining the K1-k2 ratio (non-displaceable distribution volume, VND (Abi-Dargham et al., 1994) to the cerebellum estimate (TTCM-UC and TTCM-C, respectively), and the plasma reference graphical analysis (PRGA; Logan et al., 1990). In TTCM-UC and TTCM-C, BPND was given as the k3-k4 ratio.
In addition, tissue reference methods, namely the multilinear reference tissue method with 2 parameters (MRTM2; Ichise et al., 2002) and reference tissue graphical analysis (RTGA; Logan et al., 1996) were applied.
Akaike information criteria (AIC; Akaike 1974; Burnham and Anderson 2004) was used to examine goodness of fit for compartmental models and for the examination of occupancy-PK relationships using Equation 3. Results

In data set [5] the test system is patients with Alzheimer's disease. The data set is described as follows: Study 12936A, adjunctive treatment to donepezil in Alzheimer's disease. Format: in vivo, human. Particulars: 90 mg daily (3×30 mg) plus 10 mg/day of donepezil.
Excerpt: In 2012, it was reported that a randomized, double blind, placebo controlled trial conducted in Europe, Canada and Australia met its primary endpoint in the treatment of AD.
An issue for that dose selection was to ensure that the maximum exposure level fell under the maximum exposure limit which had been established from non-clinical toxicology studies. Accordingly, a fixed dose of three times in the study was introduced.
as §1

Data set [6] concerns the target T1, 5-HT6 receptor. The data set is described as follows: PK/PD Emax model of 5-HT6 occupancy fitted to PET data. It is filed as in vivo. Particulars: caudate nucleus region; non-linear mixed effect modelling. Also on record: from tissue; host or cells: brain of living healthy male subjects (putamen, caudate nucleus, ventral striatum), in vivo PET. As for the experimental part:
In total three PET scans were performed per subject, the first at baseline, the second around tmax on last day of dosing and the last in the interval 10-51 hours post dose on the last day of dosing.
In order to allow for estimation of the inter-subject variability in the occupancy, non-linear mixed effect modelling was performed where the inter-subject variability was modelled as an exponential term on EC50.

A short description of data set [7]: Evaluation of [^11C]LuPET as PET tracer in the human brain. It is filed as in vivo. As for the experimental part: as §2
as §3, with “2000). […]” for “2000).”

Data set [8] addresses T1, 5-HT6 receptor. The experiment in a line: Displacement of [^11C]LuPET binding by olanzapine, PET (Part A). Particulars: one dose of 10 mg, scan 5 hours after dose; across brain regions.
Excerpt: In Part A, baseline scans were repeated on the same day (n=1) or separate days (n=7) ranging from 1 to 18 days apart to test reproducibility of PET outcome variables.
[formula] where superscripts indicate BPND of baseline (B) and post-dose (D), respectively.
Where [9] appears, read: Caudate nucleus (CN), PRGA, 3H + P2 pooled.
Setting [10] is: Caudate nucleus (CN), PRGA, 3H scans.
Setting [11] is: Caudate nucleus (CN), PRGA, P2 scans.
Setting [12] is: Caudate nucleus (CN), RTGA, 3H + P2 pooled.
Setting [13] is: Caudate nucleus (CN), RTGA, 3H scans.
[14] abbreviates: Caudate nucleus (CN), RTGA, P2 scans.
Where [15] appears, read: Putamen (Pu), PRGA, 3H + P2 pooled.
The mark [16] stands for this setting: Ventral striatum (vS), PRGA, 3H + P2 pooled.
[17] abbreviates: Ventral striatum (vS), PRGA, 3H scans.
[18] abbreviates: Ventral striatum (vS), PRGA, P2 scans.

Entries after “also recorded” stand apart in the source; their conditions may differ. Read-outs that look alike come from different tables or passages of the source.

T1 sequence (P50406 whole entry): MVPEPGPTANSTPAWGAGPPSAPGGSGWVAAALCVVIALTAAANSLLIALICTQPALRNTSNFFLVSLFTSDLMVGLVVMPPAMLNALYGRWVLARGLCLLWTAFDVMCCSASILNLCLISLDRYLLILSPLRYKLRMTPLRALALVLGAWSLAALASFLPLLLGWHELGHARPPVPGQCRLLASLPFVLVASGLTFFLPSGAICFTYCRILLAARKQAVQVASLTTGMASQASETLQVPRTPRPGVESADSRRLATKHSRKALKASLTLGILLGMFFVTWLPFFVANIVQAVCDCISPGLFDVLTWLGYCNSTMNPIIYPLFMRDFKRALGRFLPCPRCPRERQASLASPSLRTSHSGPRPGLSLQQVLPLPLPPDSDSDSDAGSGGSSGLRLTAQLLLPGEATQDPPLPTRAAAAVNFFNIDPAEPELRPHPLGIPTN

As to `Fc1ccc2c(CCNCc3cccc(OCC(F)(F)C(F)F)c3)c[nH]c2c1` [Compound I, N-[2-(6-fluoro-1H-indol-3-yl)ethyl]-3-(2,2,3,3-tetrafluoropropoxy)benzylamine], the “PK range (plasma concentration)” value in data set [1] fell in the range of 0.54 to 204 ng/mL. Further, the clearance result in data set [2] (elderly compared to younger subjects) was “reduced”. The half-life (commonly how long it takes for the measured level to halve) in data set [2] (elderly population) is roughly 19 h; in data set [2] (young healthy subjects) it was roughly 12 h. Also, in data set [3], the “PANSS total score vs placebo” value is “did not offer any treatment advantage over placebo”. The “overall neurocognitive performance (BACS composite Z-score, PANSS cognitive subscale scores) vs placebo” value in data set [3] is “did not appear to be any treatment advantage over placebo”. Further, the receptor occupancy at 30 mg is greater than 85% on 5-HT6 receptor [4] (30 mg BID, at Cmax) and roughly 80% on 5-HT6 receptor [4] (30 mg QD, at Cmax). Besides, the receptor occupancy at 60 mg at 5-HT6 receptor [4] (60 mg BID, at Cmax) is greater than 90%. Further, the “PK values predicted to generate 80% occupancy” value on 5-HT6 receptor [4] (CN and vS by PRGA) is “about 120 ng/mL”; at 5-HT6 receptor [4] (CN by RTGA) it was “about 100 ng/mL”; on 5-HT6 receptor [4] (Pu by PRGA) it was “about 50 ng/mL”. Further, the “80% RO (PK predicted to exert 80% occupancy)” value is recorded as 51.1 ng/mL at 5-HT6 receptor [4] (setting [9]); 50.1 ng/mL on 5-HT6 receptor [4] (setting [10]); 48.0 ng/mL at 5-HT6 receptor [4] (setting [11]); 108.4 ng/mL at 5-HT6 receptor [4] (setting [12]); 102.8 ng/mL at 5-HT6 receptor [4] (setting [13]); 101.5 ng/mL at 5-HT6 receptor [4] (setting [14]). The “80% RO (PK predicted to exert 80% occupancy)” value on 5-HT6 receptor [4] (setting [15]) was 131.7 ng/mL; at 5-HT6 receptor [4] (Putamen (Pu), PRGA, 3H scans) it was 137.8 ng/mL; at 5-HT6 receptor [4] (Putamen (Pu), PRGA, P2 scans) it was 116.7 ng/mL; at 5-HT6 receptor [4] (setting [16]) it was 121.0 ng/mL; on 5-HT6 receptor [4] (setting [17]), 66.5 ng/mL; at 5-HT6 receptor [4] (setting [18]), 133.5 ng/mL. For the same compound, the Omax was found to be 91.3% on 5-HT6 receptor [4] (setting [9]); 90.3% on 5-HT6 receptor [4] (setting [10]); 93.9% on 5-HT6 receptor [4] (setting [11]); 85.7% on 5-HT6 receptor [4] (setting [12]); 85.2% on 5-HT6 receptor [4] (setting [13]); 87.1% at 5-HT6 receptor [4] (setting [14]). Also, the Omax worked out at 83.2% on 5-HT6 receptor [4] (setting [15]); 82.8% at 5-HT6 receptor [4] (Putamen (Pu), PRGA, 3H scans); 83.8% at 5-HT6 receptor [4] (Putamen (Pu), PRGA, P2 scans); 77.3% at 5-HT6 receptor [4] (Putamen (Pu), RTGA, 3H + P2 pooled); 7.5% on 5-HT6 receptor [4] (Putamen (Pu), RTGA, 3H scans); 76.6% on 5-HT6 receptor [4] (Putamen (Pu), RTGA, P2 scans). Further, the Omax on 5-HT6 receptor [4] (setting [16]) was 86.0%; at 5-HT6 receptor [4] (setting [17]), 85.5%; on 5-HT6 receptor [4] (setting [18]), 89.7%; at 5-HT6 receptor [4] (Ventral striatum (vS), RTGA, 3H + P2 pooled), 76.5%; at 5-HT6 receptor [4] (Ventral striatum (vS), RTGA, 3H scans) it was 78.2%; on 5-HT6 receptor [4] (Ventral striatum (vS), RTGA, P2 scans), 72.1%. Besides, the Omax result at 5-HT6 receptor [4] (oral administration, overall study estimate based on Pu and CN) is recorded as “about 90%”. Also, on 5-HT6 receptor [4] (after multiple dosages, 24 hours post dose vs Cmax), the “5-HT6 receptor occupancy 24 hours post dose” value is on record as “only decreased slightly; also recorded: maintained”. In addition, in data set [5], the “secondary endpoints (global impression, daily living activities) vs donepezil treated patients” value is recorded as “positive results”. For the same compound, the “cognitive function (ADAS-cog) vs placebo plus donepezil” value in data set [5] (278 patients) is recorded as “significantly improved”. On 5-HT6 receptor [6], the “Emax (maximal occupancy)” value turned out to be 91%.

Take `[11CH3]N1CCN(c2cccc3cc(S(=O)(=O)c4ccccc4)cnc23)CC1` [[^11C]LuPET]: in data set [7] (cerebellum (Cb), mean across baseline scans, TTCM-UC), the “k2 (brain-to-blood clearance rate constant)” value was determined as 0.076 min⁻¹. Also, the “distribution volume VT” value in data set [7] (striatum target regions) is reported as roughly 10 mL/mL.

With `Cc1cc2c(s1)Nc1ccccc1N=C2N1CCN(C)CC1` [olanzapine], the “displacement of binding of [^11C]LuPET” value on 5-HT6 receptor [8] is recorded as “about 80%”.
